Reference: ChEMBL document CHEMBL4706648, “Antitubercular 2-Pyrazolylpyrimidinones: Structure-Activity Relationship and Mode-of-Action Studies” (J Med Chem, 2021)
≈ marks a conversion by molar mass, not a printed value. Calls of active or inactive are those of the source. The calls are words filed in the database; no cut-off is given here.

Key:
[1] = Metabolic stability in human liver microsomes assessed as parent compound remaining after 30 mins; assay type: ADME, Microsome; conditions: 0.5 h
[2] = Kinetic solubility of compound at 200 uM at pH 7.4 measured after 20 hrs by HPLC-DAD analysis; assay type: physicochemical; conditions: buffer, pH 7.4, 20 h
[3] = Protein binding in human plasma assessed as unbound fraction at 5 uM incubated for 1 hr at 37 degreeC and measured after 4 hrs by ultracentrifugation based LC-MS/MS analysis; assay type: ADME, cell-free; conditions: 5 h
[4] = Aqueous solubility of compound at pH 7.4; assay type: physicochemical; conditions: buffer
[5] = Metabolic stability in rat liver microsomes assessed as parent compound remaining after 30 mins; assay type: ADME, Microsome; conditions: 0.5 h
[6] = system: Mycobacterium tuberculosis; assay: Bactericidal activity against Mycobacterium tuberculosis H37Rv assessed as reduction in CFU grown under middlebrook 7H9/OADC-Glycerol-Tween80 medium at 1 to 2 times MIC incubated for 7 days; assay type: functional; conditions: time 7 day
[7] = target: Voltage-gated inwardly rectifying potassium channel KCNH2 (Homo sapiens, UniProt Q12809); assay: Inhibition of human ERG
[8] = Metabolic stability in mouse liver microsomes assessed as parent compound remaining after 30 mins; assay type: ADME, Microsome; conditions: 0.5 h
[9] = Intrinsic clearance in C57/BL6 mouse blood at 2 mg/kg, iv administered as bolus dose measured upto 24 hrs by LC-MS/MS analysis; assay type: ADME, organism-based; conditions: in vivo
[10] = Volume of distribution during elimination phase in C57/BL6 mouse blood at 2 mg/kg, iv administered as bolus dose measured upto 24 hrs by LC-MS/MS analysis; assay type: ADME, organism-based; conditions: mouse, in vivo, 2 mg/kg, 24 h
[11] = system: Mycobacterium tuberculosis; assay: Antimycobacterial activity against mmpL3 gene silenced Mycobacterium tuberculosis H37Rv assessed as inhibition of bacterial growth grown under middlebrook 7H9 medium incubated for 7 days by alamar blue broth microdilution method; assay type: functional, organism-based; conditions: time 7.0 day
[12] = Apparent half life in C57/BL6 mouse blood at 2 mg/kg, iv administered as bolus dose measured upto 24 hrs by LC-MS/MS analysis; assay type: ADME, organism-based; conditions: mouse, in vivo, 2 mg/kg, 24 h
CHO = assay: Cytotoxicity against CHO cells assessed as reduction in cell viability by MTT assay; assay type: cell-based; conditions: Cricetulus griseus
[13] = Cmax in C57/BL6 mouse blood at 2 mg/kg, iv administered as bolus dose measured upto 24 hrs by LC-MS/MS analysis; assay type: ADME, organism-based; design: route intravenous, dose 2 mg/kg, time <=24; conditions: mouse, in vivo, 24 h
[14] = system: Mycobacterium tuberculosis; assay type: functional; conditions: H37Rv, 168 h, time 7 day
[15] = AUC (0 to infinity) in C57/BL6 mouse blood at 2 mg/kg, iv administered as bolus dose measured upto 24 hrs by LC-MS/MS analysis; assay type: ADME, organism-based; design: route intravenous, dose 2 mg/kg, time <=24; conditions: mouse, in vivo, 24 h
[16] = Oral bioavailability in C57/BL6 mouse blood at 20 mg/kg measured upto 24 hrs by LC-MS/MS analysis; assay type: ADME, organism-based; conditions: mouse, in vivo, 20 mg/kg, 24 h
[17] = system: Mycobacterium tuberculosis; assay: Antimycobacterial activity against wild-type Mycobacterium tuberculosis H37Rv assessed as inhibition of bacterial growth grown under middlebrook 7H9 medium incubated for 7 days by alamar blue broth microdilution method; assay type: functional; conditions: 168 h, time 7 day
[18] = Cmax in C57/BL6 mouse blood at 20 mg/kg, po measured upto 24 hrs by LC-MS/MS analysis; assay type: ADME, organism-based; design: route oral, dose 20 mg/kg, time <=24; conditions: mouse, in vivo, 24 h
[19] = Tmax in C57/BL6 mouse blood at 20 mg/kg, po measured upto 24 hrs by LC-MS/MS analysis; assay type: ADME, organism-based; conditions: mouse, in vivo, 20 mg/kg, 24 h
[20] = Apparent half life in C57/BL6 mouse blood at 20 mg/kg, po measured upto 24 hrs by LC-MS/MS analysis; assay type: ADME, organism-based; conditions: mouse, in vivo, 20 mg/kg, 24 h
[21] = system: Mycobacterium tuberculosis; assay type: functional; conditions: H37Rv, 168 h, time 7 day; remark: listed apart in the source
[22] = Solubility of compound at 3 uM; assay type: physicochemical
[23] = system: Mycobacterium tuberculosis; assay type: functional; conditions: H37Rv, 168 h, time 7 day; remark: listed apart in the source
HepG2 [24] = assay: Antiproliferative activity against human HepG2 cells assessed as reduction in cell viability grown under glucose medium by MTT assay; assay type: functional, cell-based
[25] = Metabolic stability in rat liver microsomes assessed as parent compound remaining at 1 uM in presence of NADPH by LC-MS/MS analysis; assay type: ADME, Microsome
[26] = system: Mycobacterium tuberculosis; assay type: functional; conditions: H37Rv, 168 h, time 7 day; remark: listed apart in the source
[27] = Lipophilicity, log D of the compound in n-octanol and phosphate buffer at pH 7.4 measured after 3 hrs by HPLC-DAD analysis; assay type: physicochemical
[28] = system: Mycobacterium tuberculosis; assay type: functional; conditions: H37Rv, 168 h, time 7 day; remark: listed apart in the source
HepG2 [29] = assay: Antiproliferative activity against human HepG2 cells assessed as reduction in cell viability grown under galactose medium by MTT assay; assay type: functional, cell-based
[30] = system: Mycobacterium tuberculosis; assay type: functional; conditions: H37Rv, 168 h, time 7 day; remark: listed apart in the source
[31] = Metabolic stability in mouse liver microsomes assessed as parent compound remaining at 1 uM in presence of NADPH by LC-MS/MS analysis; assay type: ADME, Microsome
[32] = Metabolic stability in human liver microsomes assessed as parent compound remaining at 1 uM in presence of NADPH by LC-MS/MS analysis; assay type: ADME, Microsome

Voltage-gated inwardly rectifying potassium channel KCNH2, sequence (Q12809 whole entry): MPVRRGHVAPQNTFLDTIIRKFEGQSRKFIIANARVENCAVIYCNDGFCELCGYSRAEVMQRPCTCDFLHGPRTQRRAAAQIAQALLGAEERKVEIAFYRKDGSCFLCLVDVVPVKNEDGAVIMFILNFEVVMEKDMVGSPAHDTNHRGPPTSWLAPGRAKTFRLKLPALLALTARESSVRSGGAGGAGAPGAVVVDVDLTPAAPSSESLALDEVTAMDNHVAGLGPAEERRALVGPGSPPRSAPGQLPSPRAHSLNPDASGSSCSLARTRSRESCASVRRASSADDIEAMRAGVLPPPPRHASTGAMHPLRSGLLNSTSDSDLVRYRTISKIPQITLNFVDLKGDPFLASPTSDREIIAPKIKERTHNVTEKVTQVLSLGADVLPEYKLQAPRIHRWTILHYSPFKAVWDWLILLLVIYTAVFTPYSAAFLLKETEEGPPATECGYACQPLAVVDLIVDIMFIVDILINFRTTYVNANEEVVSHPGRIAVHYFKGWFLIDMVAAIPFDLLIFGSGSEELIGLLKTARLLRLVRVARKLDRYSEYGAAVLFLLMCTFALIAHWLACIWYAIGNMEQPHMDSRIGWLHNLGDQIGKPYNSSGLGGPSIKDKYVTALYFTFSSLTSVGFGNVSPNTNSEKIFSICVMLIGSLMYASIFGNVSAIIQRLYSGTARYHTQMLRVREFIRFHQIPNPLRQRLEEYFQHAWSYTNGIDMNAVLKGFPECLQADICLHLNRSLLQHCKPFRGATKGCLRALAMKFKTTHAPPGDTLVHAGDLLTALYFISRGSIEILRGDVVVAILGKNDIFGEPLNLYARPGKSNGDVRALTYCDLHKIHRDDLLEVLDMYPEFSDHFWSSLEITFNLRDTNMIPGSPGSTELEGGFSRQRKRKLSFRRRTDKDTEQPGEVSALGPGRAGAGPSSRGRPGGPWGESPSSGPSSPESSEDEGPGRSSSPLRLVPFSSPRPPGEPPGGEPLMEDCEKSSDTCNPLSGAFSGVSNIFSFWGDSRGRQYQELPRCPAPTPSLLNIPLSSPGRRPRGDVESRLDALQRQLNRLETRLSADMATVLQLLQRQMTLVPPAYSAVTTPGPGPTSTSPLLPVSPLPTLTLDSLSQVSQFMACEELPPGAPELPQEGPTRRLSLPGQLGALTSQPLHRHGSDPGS

**Q.** With `Cc1cc(C)n(-c2nc(C(F)(F)F)cc(=O)[nH]2)n1` as the molecule, how does the Stabilty [1] read?
**A.** Its Stabilty is over 99%.

**Q.** And the Kinetic_solubility [2]?
**A.** Its Kinetic_solubility is 200 µM.

**Q.** What about the Fu [3] of the same molecule?
**A.** The Fu was 0.006.

**Q.** And the solubility [4]?
**A.** Its solubility is 200 µM (≈ 51.6 µg/mL).

**Q.** And the Stabilty [5]?
**A.** Its Stabilty is 92%.

**Q.** And the Activity [6]?
**A.** The Activity was 2 log10CFU.

**Q.** And the IC50 [7]?
**A.** The IC50 was over 30 µM.

**Q.** What about the Stabilty [8] of the same molecule?
**A.** Its Stabilty is over 99%.

**Q.** What about the CL [9] of the same molecule?
**A.** Its CL is 476 mL/min/kg.

**Q.** And the Vd [10]?
**A.** The Vd was 0.7 L/kg.

**Q.** What about the Activity [11] of the same molecule?
**A.** The Activity was “Active”.

**Q.** And the “t1/2(app)” value [12]?
**A.** Its value is 3.1 h.

**Q.** What about the IC50 (CHO) of the same molecule?
**A.** Its IC50 is 150 µM.

**Q.** What about the Cmax [13] of the same molecule?
**A.** Its Cmax is 29.1 µM.

**Q.** And the MIC [14]?
**A.** Its MIC is 12 µM (≈ 3.1 µg/mL).

**Q.** And the AUC [15]?
**A.** Its AUC is 2928 µM·min.

**Q.** And the F [16]?
**A.** The F was 41%.

**Q.** And the MIC [17]?
**A.** The MIC was 15 µM (≈ 3.87 µg/mL).

**Q.** And the Cmax [18]?
**A.** Its Cmax is 65.6 µM.

**Q.** What about the Tmax [19] of the same molecule?
**A.** Its Tmax is 0.5 h.

**Q.** What about the “t1/2(app)” value [20] of the same molecule?
**A.** Its value is 4 h.

**Q.** Which MIC [21] does the source give for `Cc1cc(C)n(-c2nc(O)cc(-c3ccccc3)n2)n1` here?
**A.** Its MIC is 0.3 µM (≈ 0.0799 µg/mL).

**Q.** And the solubility at 3 µM [22]?
**A.** Its solubility at 3 µM is 180 µM (≈ 47.9 µg/mL).

**Q.** What about the solubility [4] of the same molecule?
**A.** The solubility was 10 µM (≈ 2.66 µg/mL).

**Q.** What about the MIC [23] of the same molecule?
**A.** The MIC was 1.5 µM (≈ 0.399 µg/mL).

**Q.** What about the IC50 (HepG2 [24]) of the same molecule?
**A.** Its IC50 is 4 µM.

**Q.** And the IC50 [7]?
**A.** The IC50 was over 30 µM.

**Q.** What about the Stabilty [25] of the same molecule?
**A.** Its Stabilty is 69%.

**Q.** And the MIC [26]?
**A.** Its MIC is 0.4 µM (≈ 0.107 µg/mL).

**Q.** What about the logD at 3 h [27] of the same molecule?
**A.** The logD at 3 h was 2.5.

**Q.** What about the MIC [28] of the same molecule?
**A.** The MIC was 0.6 µM (≈ 0.16 µg/mL).

**Q.** What about the IC50 (HepG2 [29]) of the same molecule?
**A.** Its IC50 is 4 µM.

**Q.** And the Activity [11]?
**A.** Its Activity is “Active”.

**Q.** What about the IC50 (CHO) of the same molecule?
**A.** Its IC50 is 8 µM.

**Q.** And the MIC [14]?
**A.** The MIC was 1.5 µM (≈ 0.399 µg/mL).

**Q.** And the MIC [30]?
**A.** The MIC was 0.02 µM (≈ 0.00533 µg/mL).

**Q.** What about the Stabilty [31] of the same molecule?
**A.** The Stabilty was 22%.

**Q.** What about the MIC [17] of the same molecule?
**A.** Its MIC is 1.7 µM (≈ 0.453 µg/mL).

**Q.** And the Stabilty [32]?
**A.** The Stabilty was 98%.
